From paper PMC12457078, “Inhibition of soluble epoxide hydrolase in endotoxin induced pig lung injury” (Frontiers in Pharmacology, 2025)
“And” between values parts separate entries of the source, which are not always exact repeats. Equal entries are not always repeated.

Tested on: sEH
Assay: oxylipin analysis, epoxide/diol ratios (target engagement)
Assay type: in vivo, pig
Design: 14,15-DiHETE: unit not given beside the values; 12,13-DiHOME / 9,10-DiHODE / 11,12-DiHETrE / 14,15-DiHETrE / 10,11-DiHDPE / 19,20-DiHDPE / 13-HODE / 5-HETE / 11-HETE / 12-HETE / 5-HEPE / 9(10)-EpOME / 12(13)-EpOME / EKODE / 11(12)-EpETE: unit not given here
Settings: for 9,10,13-TriHOME / 9,12,13-TriHOME: bad chromatography; for 14,15-DiHETE: high blanks
Procedure: All animals were monitored with pulse oximetry, heart rate, ECG, systemic arterial blood pressure (ABP), pulmonary arterial pressure (PAP), central venous pressure (CVP) temperature, tidal volumes, respiratory rate and end tidal carbon dioxide. At baseline, and at 3 h, 6 h and at the end of the experiment, pulmonary capillary wedge pressure (PCWP) was measured together with arterial and venous blood gas analyses, as well as cardiac output calculations. Routine chemistry, including creatinine, bilirubin, glucose, electrolytes were collected at baseline and at the end of the experiment (Vetscan VS2®, Abaxis, Griesheim, Germany). Blood samples for measurement of AEPU plasma concentrations, as well as oxylipins (i.e., EpETrEs and their DiHETrE corresponding diols as well as related compounds with other polyunsaturated fatty acid precursors), were collected at baseline, 6 h and at the end of the experiment.
This meant nine subjects in each group to achieve 90% power of detecting a difference of this size given α = 0.05. Anticipating that not all experiments would reach completion, we used a sample size of 22. The results were analyzed using SPSS Statistics, version 24 (IBM Corp., Armonk, N.Y., United States). Normality was examined with the Shapiro-Wilk test, together with examination of histograms of data. Continuous variables were compared using Student’s t-test or Mann Whitney U test, as appropriate. Categorical variables were compared using Fischer’s exact test. Statistical significance was set at α < 0.05. Oxylipins with at least 80% of observations above limit of detection at both timepoints were included in pairwise comparisons of ratios and fold-change evaluations where observations below limit of detection (LOD) were substituted with 0.5 x LOD.

CCOCCOCCOCCCCCNC(=O)NC12CC3CC(CC(C3)C1)C2 [sEH-i]
13-HOTrE (time 0, individual pigs): 1.38 and 2.03 and 0.71 and 0.95 and 0.65
13-oxo-ODE (time 0, individual pigs): <LOD
14(15)-EpETE (time 0, individual pigs): <LOD
14(15)-EpETrE (time 0, individual pigs): <LOD
14,15-DiHETrE (time 0, individual pigs): 0.82 and 0.55 and 0.35 and 0.43 and 0.51
15(16)-EpODE (time 0, individual pigs): 12.33 and 9.22 and 4.38 and 5.90 and 3.04
15,16-DiHODE (time 0, individual pigs): 22.17 and 16.83 and 10.14 and 20.63 and 11.96
15-HEPE (time 0, individual pigs): <LOD
15-HETE (time 0, individual pigs): 0.31 and 0.33 and 0.20 and 0.29 and 0.16
15-HETrE (time 0, individual pigs): 0.19 and 0.21 and 0.13 and 0.18 and 0.10
15-oxo-ETE (time 0, individual pigs): 0.03 and <LOD and 0.043 and 0.0266
16(17)-EpDPE (time 0, individual pigs): <LOD
16,17-DiHDPE (time 0, individual pigs): 0.10 and 0.0746 and 0.0252 and 0.0444 and 0.03
17(18)-EpETE (time 0, individual pigs): <LOD
17,18-DiHETE (time 0, individual pigs): 0.69 and 0.45 and 0.26 and 0.66 and 0.46
17-HDoHE (time 0, individual pigs): <LOD
19(20)-EpDPE (time 0, individual pigs): <LOD
19,20-DiHDPE (time 0, individual pigs): 1.19 and 0.80 and 0.30 and 1.02 and 0.43
20-HETE (time 0, individual pigs): 0.11 and 0.12 and 0.0652 and 0.10 and 0.0444
EKODE (time 0, individual pigs): 0.36 and 0.27 and 0.38 and 0.31 and 0.33
LTB4 (time 0, individual pigs): <LOD and 0.17
PGD2 (time 0, individual pigs): <LOD
PGE2 (time 0, individual pigs): <LOD
PGF2a (time 0, individual pigs): <LOD and 0.0428
Resolvin D1 (time 0, individual pigs): <LOD
Resolvin D2 (time 0, individual pigs): <LOD
TXB2 (time 0, individual pigs): 0.0943 and 0.19 and 0.08601 and 0.18
9,10,13-TriHOME (time 0, individual pigs): 3.66 and 5.50 and 4.37 and 4.76 and 5.61
9,12,13-TriHOME (time 0, individual pigs): <LOD
14,15-DiHETE (time 0, individual pigs): 0.1158 and 0.09583 and 0.02876 and 0.02655 and 0.09648
5(6)-EpETrE (time 6, individual pigs): <LOD
5,6-DiHETrE (time 6, individual pigs): <LOD
5-HEPE (time 6, individual pigs): 0.06 and 0.18 and <LOD and 0.07 and 0.05
5-HETE (time 6, individual pigs): 0.3567 and 0.58 and 0.2089 and 0.4225 and 0.4419
5-oxo-ETE (time 6, individual pigs): 0.11 and 0.18 and <LOD and 0.14 and 0.15
7(8)-EpDPE (time 6, individual pigs): <LOD
7,8-DiHDPE (time 6, individual pigs): <LOD
8(9)-EpETE (time 6, individual pigs): <LOD
8(9)-EpETrE (time 6, individual pigs): <LOD
8,9-DiHETE (time 6, individual pigs): <LOD
8,9-DiHETrE (time 6, individual pigs): 0.10 and 0.07 and <LOD and 0.0449
8-HETE (time 6, individual pigs): 0.07 and 0.09 and 0.04 and 0.12 and 0.0759
9(10)-EpODE (time 6, individual pigs): 0.63 and 0.49 and 0.36 and 0.35 and 0.42
9(10)-EpOME (time 6, individual pigs): 1.87 and 1.33 and 0.60 and 1.51 and 2.48
9,10-DiHODE (time 6, individual pigs): 0.64 and 1.20 and 1.17 and 0.73 and 0.69
9,10-DiHOME (time 6, individual pigs): 5.75 and 8.57 and 9.02 and 5.97
9-HETE (time 6, individual pigs): <LOD
9-HODE (time 6, individual pigs): 13.28 and 24.06 and 22.88 and 16.64 and 15.68
9-HOTrE (time 6, individual pigs): 1.36 and 2.59 and 1.91 and 1.50 and 0.95
9-oxo-ODE (time 6, individual pigs): <LOD
10(11)-EpDPE (time 6, individual pigs): <LOD
10,11-DiHDPE (time 6, individual pigs): 0.07 and 0.03 and 0.0327 and 0.02 and 0.0362
11(12)-EpETE (time 6, individual pigs): 0.1179 and 0.09737 and 0.1269 and 0.06515 and 0.0705
11(12)-EpETrE (time 6, individual pigs): 0.05 and 0.0441 and 0.0274 and 0.0271
11,12-DiHETE (time 6, individual pigs): 0.0351 and 0.0319 and 0.0666 and 0.03 and 0.05
11,12-DiHETrE (time 6, individual pigs): 0.86 and 0.62 and 1.36 and 0.66 and 0.92
11-HETE (time 6, individual pigs): 0.42 and 0.30 and 0.66 and 0.25 and 0.40
12(13)-EpODE (time 6, individual pigs): 1.12 and 0.79 and 0.95 and 0.91
12(13)-EpOME (time 6, individual pigs): 5.25 and 4.08 and 1.60 and 5.63 and 7.56
12,13-DiHODE (time 6, individual pigs): 1.01 and 1.89 and 1.53 and 1.48 and 1.36
12,13-DiHOME (time 6, individual pigs): 16.00 and 24.72 and 21.84 and 22.49 and 19.00
12-HEPE (time 6, individual pigs): 0.08 and 0.11 and 0.06 and 0.0632 and 0.04
12-HETE (time 6, individual pigs): 1.11 and 0.86 and 0.59 and 0.65 and 0.46
12-oxo-ETE (time 6, individual pigs): <LOD
13(14)-EpDPE (time 6, individual pigs): <LOD
13,14-DiHDPE (time 6, individual pigs): 0.15 and 0.10 and 0.13 and 0.06
13-HODE (time 6, individual pigs): 42.16 and 101.75 and 49.69 and 56.11 and 42.57
13-HOTrE (time 6, individual pigs): 1.94 and 6.77 and 3.06 and 2.84 and 1.84
13-oxo-ODE (time 6, individual pigs): <LOD and 5.47
14(15)-EpETE (time 6, individual pigs): <LOD
14(15)-EpETrE (time 6, individual pigs): <LOD and 0.0855 and 0.08
14,15-DiHETrE (time 6, individual pigs): 1.69 and 1.48 and 1.65 and 0.72 and 0.63
15(16)-EpODE (time 6, individual pigs): 24.31 and 29.46 and 11.19 and 30.59 and 26.51
15,16-DiHODE (time 6, individual pigs): 54.83 and 45.60 and 30.98 and 42.25 and 33.76
15-HEPE (time 6, individual pigs): <LOD
15-HETE (time 6, individual pigs): 0.63 and 0.86 and 0.43 and 0.48
15-HETrE (time 6, individual pigs): 0.41 and 0.47 and 0.48 and 0.37 and 0.39
15-oxo-ETE (time 6, individual pigs): 0.0346 and <LOD and 0.03 and 0.0128
16(17)-EpDPE (time 6, individual pigs): <LOD
16,17-DiHDPE (time 6, individual pigs): 0.19 and 0.20 and 0.14 and 0.0527 and 0.085
17(18)-EpETE (time 6, individual pigs): <LOD
17,18-DiHETE (time 6, individual pigs): 1.22 and 1.33 and 1.55 and 0.59 and 1.01
17-HDoHE (time 6, individual pigs): <LOD
19(20)-EpDPE (time 6, individual pigs): <LOD
19,20-DiHDPE (time 6, individual pigs): 1.72 and 1.58 and 1.48 and 0.68 and 0.62
20-HETE (time 6, individual pigs): 0.11 and 0.12 and 0.08 and 0.10
EKODE (time 6, individual pigs): 0.88 and 0.74 and 0.47 and 0.87 and 1.05
LTB4 (time 6, individual pigs): <LOD and 0.28 and 0.38 and 0.18 and 0.43
PGD2 (time 6, individual pigs): <LOD and 0.01 and 0.00656
PGE2 (time 6, individual pigs): 0.095 and 0.06 and 0.20 and <LOD and 0.12
PGF2a (time 6, individual pigs): 1.61 and 0.65 and 4.40 and 0.44 and 2.56
Resolvin D1 (time 6, individual pigs): <LOD
Resolvin D2 (time 6, individual pigs): <LOD
TXB2 (time 6, individual pigs): 2.92 and 3.83 and 2.22 and 1.21 and 1.79
9,10,13-TriHOME (time 6, individual pigs): 2.86 and 3.12 and 7.92 and 7.73 and 5.56
9,12,13-TriHOME (time 6, individual pigs): <LOD and 0.24
14,15-DiHETE (time 6, individual pigs): 0.3645 and 0.4177 and 0.09663 and 0.04163 and 0.2578
